Columns and labels:
CYP2C19 = CYP2C19 (Homo sapiens, UniProt P33261); experiment: Inhibition of CYP2C19 in human liver microsomes at 10 uM preincubated for 10 mins followed by addition of NADPH-regenerating system and measured after 15 mins by LC-MS/MS analysis relative to control; assay type: ADME, Microsome; details: time 25 min
MCF7 [1] = experiment: Induction of cell cycle arrest in human MCF7 cells assessed as decrease in G1 phase cells at 0.50 uM measured after 48 hrs by flow cytometry analysis (reference value: 56.9 %); assay type: functional; parameters: scale not given: the % may be the effect or the level left; details: dose 0.5 µM
MCF7 [2] = experiment: Induction of cell cycle arrest in human MCF7 cells assessed as less G1 phase cells at 1 uM measured after 48 hrs by flow cytometry analysis (reference value: 0.44 %); assay type: functional
[3] = Half-life in Sprague-Dawley rat at 10 mg/kg, po by LC-MS/MS analysis; assay type: ADME, organism-based; details: in vivo
MCF7 [4] = experiment: Induction of apoptosis in human MCF7 cells assessed as early apoptotic cells at 2.5 uM incubated for 48 hrs by Annexin-V-FITC/PI staining based flow cytometric analysis (reference value: 2.83 %); assay type: functional
MCF7 [5] = experiment: Induction of apoptosis in human MCF7 cells assessed as viable cells at 0.10 uM incubated for 48 hrs by Annexin-V-FITC/PI staining based flow cytometric analysis (reference value: 97 %); assay type: functional; details: dose 0.1 µM
MCF7 [6] = experiment: Induction of cell cycle arrest in human MCF7 cells assessed as decrease in G1 phase cells at 0.25 uM measured after 48 hrs by flow cytometry analysis (reference value: 56.9 %); assay type: functional; parameters: scale not given: the % may be the effect or the level left
CYP2D6 = CYP2D6 (Homo sapiens, UniProt P10635); experiment: Inhibition of CYP2D6 in human liver microsomes at 10 uM preincubated for 10 mins followed by addition of NADPH-regenerating system and measured after 15 mins by LC-MS/MS analysis relative to control; assay type: ADME, Microsome; details: time 25 min
CYP2D6, sequence (P10635 whole entry): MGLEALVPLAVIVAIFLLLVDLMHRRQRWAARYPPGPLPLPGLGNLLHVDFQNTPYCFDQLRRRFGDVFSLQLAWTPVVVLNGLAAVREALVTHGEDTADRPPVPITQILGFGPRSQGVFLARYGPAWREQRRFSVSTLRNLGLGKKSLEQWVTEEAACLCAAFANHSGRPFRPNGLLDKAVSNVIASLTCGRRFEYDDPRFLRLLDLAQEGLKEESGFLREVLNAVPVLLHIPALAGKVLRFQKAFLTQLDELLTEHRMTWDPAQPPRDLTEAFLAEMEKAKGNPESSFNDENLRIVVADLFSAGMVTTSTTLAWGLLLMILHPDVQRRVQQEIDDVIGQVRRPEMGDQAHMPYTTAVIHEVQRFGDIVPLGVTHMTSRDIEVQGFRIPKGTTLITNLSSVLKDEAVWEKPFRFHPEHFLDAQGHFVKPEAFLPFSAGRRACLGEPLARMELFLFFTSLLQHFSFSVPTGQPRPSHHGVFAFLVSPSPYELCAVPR

[7] = Plasma stability in human assessed as compound remaining at 100 uM measured after 120 mins by LC-MS/MS analysis relative to control; assay type: ADME, cell-free; details: read-out: Stability
MCF7 [8] = experiment: Induction of apoptosis in human MCF7 cells assessed as necrotic cells at 2.5 uM incubated for 48 hrs by Annexin-V-FITC/PI staining based flow cytometric analysis (reference value: 0.18 %); assay type: functional
MCF7 [9] = experiment: Induction of cell cycle arrest in human MCF7 cells assessed as G2 phase cells at 0.10 uM measured after 48 hrs by flow cytometry analysis (reference value: 31.8 %); assay type: functional; details: dose 0.1 µM
MCF7 [10] = experiment: Induction of cell cycle arrest in human MCF7 cells assessed as decrease in G1 phase cells at 1 uM measured after 48 hrs by flow cytometry analysis (reference value: 56.9 %); assay type: functional; parameters: scale not given: the % may be the effect or the level left
[11] = Plasma stability in human assessed as half-life at 100 uM measured upto 120 mins by LC-MS/MS analysis relative to control; assay type: ADME, cell-free
MCF7 [12] = experiment: Induction of cell cycle arrest in human MCF7 cells assessed as greater G1 phase cells at 2.5 uM measured after 48 hrs by flow cytometry analysis (reference value: 0.78 %); assay type: functional
[13] = target: Serine/threonine-protein kinase PAK 4 (Homo sapiens, UniProt O96013); experiment: Inhibition of PAK4 (unknown origin) incubated for 60 mins by time-resolved HTRF assay
Serine/threonine-protein kinase PAK 4, sequence (O96013 whole entry): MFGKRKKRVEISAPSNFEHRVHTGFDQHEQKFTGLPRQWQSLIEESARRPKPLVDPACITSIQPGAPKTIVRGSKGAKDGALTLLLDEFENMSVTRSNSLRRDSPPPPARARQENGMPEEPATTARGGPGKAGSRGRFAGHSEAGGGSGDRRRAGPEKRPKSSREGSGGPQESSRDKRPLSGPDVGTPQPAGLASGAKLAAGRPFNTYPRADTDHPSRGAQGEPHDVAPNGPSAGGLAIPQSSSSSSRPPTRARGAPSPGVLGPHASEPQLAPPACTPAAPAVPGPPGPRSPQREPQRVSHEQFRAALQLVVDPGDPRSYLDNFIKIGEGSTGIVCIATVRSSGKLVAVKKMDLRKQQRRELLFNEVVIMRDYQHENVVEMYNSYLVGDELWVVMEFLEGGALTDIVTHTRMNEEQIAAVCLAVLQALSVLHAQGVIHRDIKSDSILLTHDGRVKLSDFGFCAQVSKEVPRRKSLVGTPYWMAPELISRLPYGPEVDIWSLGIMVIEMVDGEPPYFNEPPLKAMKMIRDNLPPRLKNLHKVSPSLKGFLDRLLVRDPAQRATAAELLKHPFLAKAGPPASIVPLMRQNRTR

MCF7 [14] = experiment: Induction of apoptosis in human MCF7 cells assessed as total apoptotic cells at 0.25 uM incubated for 48 hrs by Annexin-V-FITC/PI staining based flow cytometric analysis relative to control; assay type: functional
MCF7 [15] = experiment: Induction of apoptosis in human MCF7 cells assessed as necrotic cells at 0.10 uM incubated for 48 hrs by Annexin-V-FITC/PI staining based flow cytometric analysis (reference value: 0.18 %); assay type: functional; details: dose 0.1 µM
MCF7 [16] = experiment: Induction of apoptosis in human MCF7 cells assessed as late apoptotic cells at 0.50 uM incubated for 48 hrs by Annexin-V-FITC/PI staining based flow cytometric analysis (reference value: 0.019 %); assay type: functional; details: dose 0.5 µM
[17] = Volume of distribution at steady state in Sprague-Dawley rat at 3 mg/kg, iv by LC-MS/MS analysis; assay type: ADME, organism-based; details: in vivo, read-out: Vdss
MCF7 [18] = experiment: Induction of cell cycle arrest in human MCF7 cells assessed as G2 phase cells at 0.25 uM measured after 48 hrs by flow cytometry analysis (reference value: 31.8 %); assay type: functional
MCF7 [19] = experiment: Induction of apoptosis in human MCF7 cells assessed as viable cells at 2.5 uM incubated for 48 hrs by Annexin-V-FITC/PI staining based flow cytometric analysis (reference value: 97 %); assay type: functional
MCF7 [20] = experiment: Induction of cell cycle arrest in human MCF7 cells assessed as less G1 phase cells at 2.5 uM measured after 48 hrs by flow cytometry analysis (reference value: 0.44 %); assay type: functional
[21] = Cmax in Sprague-Dawley rat at 10 mg/kg, po by LC-MS/MS analysis; assay type: ADME, organism-based; parameters: dose 10 mg/kg, route po; details: in vivo
MCF7 [22] = experiment: Induction of cell cycle arrest in human MCF7 cells assessed as greater G1 phase cells at 0.25 uM measured after 48 hrs by flow cytometry analysis (reference value: 0.78 %); assay type: functional
[23] = Half-life in Sprague-Dawley rat at 3 mg/kg, iv by LC-MS/MS analysis; assay type: ADME, organism-based; details: in vivo
MCF7 [24] = experiment: Induction of apoptosis in human MCF7 cells assessed as early apoptotic cells at 0.25 uM incubated for 48 hrs by Annexin-V-FITC/PI staining based flow cytometric analysis (reference value: 2.83 %); assay type: functional
MCF7 [25] = experiment: Induction of cell cycle arrest in human MCF7 cells assessed as S phase cells at 0.10 uM measured after 48 hrs by flow cytometry analysis (reference value: 9.31 %); assay type: functional; details: dose 0.1 µM
MCF7 [26] = experiment: Induction of apoptosis in human MCF7 cells assessed as necrotic cells at 1 uM incubated for 48 hrs by Annexin-V-FITC/PI staining based flow cytometric analysis (reference value: 0.18 %); assay type: functional
[27] = AUClast in Sprague-Dawley rat at 10 mg/kg, po by LC-MS/MS analysis; assay type: ADME, organism-based; parameters: time 0 - last, dose 10 mg/kg, route po; details: in vivo
MDA-MB-231 = experiment: Antiproliferative activity against human MDA-MB-231 cells assessed as cell growth inhibition incubated for 5 days by MTT assay; assay type: functional, cell-based; details: MDA-MB-231, 120 h
MCF7 [28] = experiment: Induction of apoptosis in human MCF7 cells assessed as early apoptotic cells at 1 uM incubated for 48 hrs by Annexin-V-FITC/PI staining based flow cytometric analysis (reference value: 2.83 %); assay type: functional
MCF7 [29] = experiment: Induction of apoptosis in human MCF7 cells assessed as total apoptotic cells at 0.50 uM incubated for 48 hrs by Annexin-V-FITC/PI staining based flow cytometric analysis relative to control; assay type: functional; details: dose 0.5 µM
MCF7 [30] = experiment: Induction of apoptosis in human MCF7 cells assessed as early apoptotic cells at 0.10 uM incubated for 48 hrs by Annexin-V-FITC/PI staining based flow cytometric analysis (reference value: 2.83 %); assay type: functional; details: dose 0.1 µM
[31] = Plasma stability in human assessed as compound remaining at 100 uM measured after 10 mins by LC-MS/MS analysis relative to control; assay type: ADME, cell-free; details: read-out: Stability
MCF7 [32] = experiment: Induction of cell cycle arrest in human MCF7 cells assessed as G2 phase cells at 0.50 uM measured after 48 hrs by flow cytometry analysis (reference value: 31.8 %); assay type: functional; details: dose 0.5 µM
[33] = Plasma stability in human assessed as compound remaining at 100 uM measured after 30 mins by LC-MS/MS analysis relative to control; assay type: ADME, cell-free; details: read-out: Stability

CYP2C19, sequence (P33261 whole entry): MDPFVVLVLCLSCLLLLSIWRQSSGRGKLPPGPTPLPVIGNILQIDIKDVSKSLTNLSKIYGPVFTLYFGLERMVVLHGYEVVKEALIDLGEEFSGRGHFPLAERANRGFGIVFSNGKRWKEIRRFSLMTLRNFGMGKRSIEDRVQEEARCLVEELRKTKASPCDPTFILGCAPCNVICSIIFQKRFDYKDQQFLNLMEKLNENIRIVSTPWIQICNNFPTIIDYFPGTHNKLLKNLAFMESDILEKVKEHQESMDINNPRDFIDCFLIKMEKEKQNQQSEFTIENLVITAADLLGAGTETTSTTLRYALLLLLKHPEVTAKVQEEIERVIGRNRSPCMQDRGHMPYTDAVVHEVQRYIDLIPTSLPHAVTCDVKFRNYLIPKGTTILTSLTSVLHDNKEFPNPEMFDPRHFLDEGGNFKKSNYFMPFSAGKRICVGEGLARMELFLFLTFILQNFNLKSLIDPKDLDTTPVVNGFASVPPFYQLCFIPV

inhibition at 0.25 h, 10 µM (CYP2C19): 32.9% | half-life [3]: 1.75 h | inhibition at 0.25 h, 10 µM (CYP2D6): 13.4% | remaining at 2 h, 100 µM [7]: 107% | half-life at 100 µM [11]: > 4.82 h | IC50 [13]: 1.75 µM | Vd [17]: 3.02 L/kg | Cmax [21]: 81.1 ng/mL | half-life [23]: 1.05 h | AUC(0-t) [27]: 286 ng·h/mL | IC50 (MDA-MB-231): 2.88 µM | remaining at 10 min, 100 µM [31]: 108% | remaining at 0.5 h, 100 µM [33]: 96.6%
SMILES: Cc1cc(Nc2nc(NCc3ccc(F)cc3F)nc3c2cnn3C2CCOCC2)n[nH]1
Activity (MCF7 [1]): 36.2% | Activity (MCF7 [2]): 0.37% | Activity (MCF7 [4]): 68.5% | Activity (MCF7 [5]): 74.9% | Activity (MCF7 [6]): 43.6% | Activity (MCF7 [8]): 0.98% | Activity (MCF7 [9]): 38% | Activity (MCF7 [10]): 21.5% | Activity (MCF7 [12]): 0.87% | Activity (MCF7 [14]): 30.98% | Activity (MCF7 [15]): 1.15% | Activity (MCF7 [16]): 7.58% | Activity (MCF7 [18]): 44.4% | Activity (MCF7 [19]): 19.7% | Activity (MCF7 [20]): 0.39% | Activity (MCF7 [22]): 0.68% | Activity (MCF7 [24]): 24.8% | Activity (MCF7 [25]): 7.46% | Activity (MCF7 [26]): 0.69% | Activity (MCF7 [28]): 65% | Activity (MCF7 [29]): 67.28% | Activity (MCF7 [30]): 19.3% | Activity (MCF7 [32]): 44.6%

— ChEMBL document CHEMBL5113403, “Design, synthesis, and biological evaluation of novel pyrazolo [3,4-d]pyrimidine derivatives as potent PLK4 inhibitors for the treatment of TRIM37-amplified breast cancer” (Eur J Med Chem, 2022)
